Measured values from patent publication US20040067932A1 (priority 2002, published 2004).

Key:
A375 cells = assay: Metabolic (MEK/ERK/p38MAPK) inhibitor signalling study by flow cytometry, A375; format: cell-based, human; settings: U0126 30 μM; for prevention of MRE3008F20-induced accumulation in G2/M: MRE3008F20 10 μM
[1] = molecular target: T1, P-gp drug efflux activity in A375 cells (Homo sapiens, UniProt P08183); assay: Rhodamine 123 efflux assay, A375 cells; format: cell-based; settings: U0126 30 μM for 30 minutes, then MRE3008F20 10 μM
T1 construct: endogenous in cells; host or cells: A375 human melanoma cells (ATCC)
T1 sequence (P08183 whole entry): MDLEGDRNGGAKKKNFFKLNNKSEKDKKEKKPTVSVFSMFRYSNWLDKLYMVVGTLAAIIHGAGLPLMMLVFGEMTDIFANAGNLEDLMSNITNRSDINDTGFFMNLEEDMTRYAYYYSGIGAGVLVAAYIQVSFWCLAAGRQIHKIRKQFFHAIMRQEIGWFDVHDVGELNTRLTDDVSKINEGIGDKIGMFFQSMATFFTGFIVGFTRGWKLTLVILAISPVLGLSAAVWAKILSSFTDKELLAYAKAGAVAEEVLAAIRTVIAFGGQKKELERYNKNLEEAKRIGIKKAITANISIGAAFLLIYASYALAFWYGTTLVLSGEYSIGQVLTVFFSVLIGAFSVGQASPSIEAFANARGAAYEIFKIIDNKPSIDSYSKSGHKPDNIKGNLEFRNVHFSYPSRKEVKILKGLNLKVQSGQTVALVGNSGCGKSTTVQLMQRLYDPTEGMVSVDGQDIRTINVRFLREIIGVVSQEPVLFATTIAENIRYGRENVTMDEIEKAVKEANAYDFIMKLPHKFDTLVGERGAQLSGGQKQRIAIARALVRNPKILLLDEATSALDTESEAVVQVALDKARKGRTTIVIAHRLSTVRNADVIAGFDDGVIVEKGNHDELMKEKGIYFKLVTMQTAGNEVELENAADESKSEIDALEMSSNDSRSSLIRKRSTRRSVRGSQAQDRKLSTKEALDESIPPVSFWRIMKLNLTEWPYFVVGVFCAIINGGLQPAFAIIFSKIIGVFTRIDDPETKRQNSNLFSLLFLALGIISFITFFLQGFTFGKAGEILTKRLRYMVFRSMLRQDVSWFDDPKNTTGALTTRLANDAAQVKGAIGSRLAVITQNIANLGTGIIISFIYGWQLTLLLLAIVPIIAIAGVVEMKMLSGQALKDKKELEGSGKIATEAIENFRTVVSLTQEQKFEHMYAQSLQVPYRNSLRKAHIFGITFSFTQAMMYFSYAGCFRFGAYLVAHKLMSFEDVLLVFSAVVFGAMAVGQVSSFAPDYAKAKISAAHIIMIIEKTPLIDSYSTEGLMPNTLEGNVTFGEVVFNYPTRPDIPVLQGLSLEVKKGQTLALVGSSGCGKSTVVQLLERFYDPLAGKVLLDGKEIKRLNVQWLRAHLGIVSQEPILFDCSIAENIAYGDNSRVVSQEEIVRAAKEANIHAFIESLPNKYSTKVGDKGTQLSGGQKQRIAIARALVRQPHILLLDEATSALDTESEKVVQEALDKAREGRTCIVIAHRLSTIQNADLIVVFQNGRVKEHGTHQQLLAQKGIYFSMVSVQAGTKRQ
Description: 5×10^5 cells from each subline were loaded with 50 ng/ml of rhodamine 123 for 30 minutes at 37° C. in medium. The cells were washed and resuspended in dye-staining agent free medium for 3 hours at 37° C. to allow rhodamine 123 efflux. The cells were then washed twice and the fluorescence of intracellular rhodamine 123 were analysed with Flow cytometer (residual fluorescence FRES). The fluorescence was compared with loaded cells maintained at 4° C. to prevent drug export (maximal fluorescence FMAX). […] Cells from each subline that were not being exposed to rhodamine 123 were used as negative controls.
Rhodamine 123 (Rh123) retention, a P-gp functional assay, was studied in all cell lines. This assay was performed by incubating cells with Rh123 and determining Rh123 accumulation by measuring its fluorescence. The maximum load of Rh123 (FMAX) was quantified at the end of treatment harvesting the cells and storing them at 4° C. to prevent any active Rh123 efflux . The P-gp drug efflux was allowed incubating Rh123-loaded cells in fresh new medium Rh123-free for 3 hours at 37° C. After this incubation, residual fluorescence (FRES) was measured and compared to FMAX.

`N#CC(=C(/N)Sc1ccccc1N)/C(C#N)=C(\N)Sc1ccccc1N` [U0126] was tested. Which “effect on G2/M accumulation rate of paclitaxel or vindesine alone (in words)” value (A375 cells; PD98059 20 μM, SB203580 1 μM) did it give?
Its value is “did not alter”.

And the “prevention of MRE3008F20-induced accumulation in G2/M” value (A375 cells; in presence of paclitaxel)?
Its value is 23±5%.

And the “prevention of MRE3008F20-induced accumulation in G2/M” value (A375 cells; in presence of vindesine 1 nM)?
The value was 48±5%.

What about the “reduction of apoptosis induced by paclitaxel” value (A375 cells; paclitaxel 25 ng/ml, PD98059 20 μM, SB203580 1 μM) of the same compound?
The value was 73±10%.

What about the “effect on MRE 3008F20 blockade of P-gp (in words)” value [1] of the same compound?
The value was “failed to prevent MRE 3008F20 blockade of P-gp”.
